According to ChEMBL document CHEMBL1136280, “Geraniol-derived 1,2,4-trioxanes with potent in-vivo antimalarial activity” (2003):
“And” between values parts separate entries of the source, which are not always exact repeats. Equal entries are not always repeated.

How the values were obtained:
Type in all cases: functional
Mus musculus [1] = experiment: Number of survival out of 5 mice on day 28 at the dose of 24 mg/kg/day i.m.; details: route intramuscular
Mus musculus [2] = experiment: Number of survival out of 5 mice on day 28 at the dose of 48 mg/kg/day i.m.; details: route intramuscular
Mus musculus [3] = experiment: Mean survival time calculated for the mice which died during 28 day observation period at the dose of 48 mg/kg/day orally; details: route oral
Mus musculus [4] = experiment: Mean survival time calculated for the mice which died during 28 day observation period at the dose of 96 mg/kg/day i.m.; details: route intramuscular
Mus musculus [5] = experiment: In vivo antimalarial activity against Plasmodium yoelii in Swiss mice (Mus musculus) on day 4 at the dose of 24 mg/kg/day intramuscular.
Mus musculus [6] = experiment: In vivo antimalarial activity against Plasmodium yoelii in Swiss mice (Mus musculus) on day 4 at the dose of 48 mg/kg/day intramuscular.
Mus musculus [7] = experiment: Number of survival out of 5 mice on day 28 at the dose of 24 mg/kg/day orally; details: route oral
Mus musculus [8] = experiment: Number of survival out of 5 mice on day 28 at the dose of 96 mg/kg/day i.m.; details: route intramuscular
Mus musculus [9] = experiment: Mean survival time calculated for the mice which died during 28 day observation period at the dose of 48 mg/kg/day i.m.; details: route intramuscular
Mus musculus [10] = experiment: Mean survival time calculated for the mice which died during 28 day observation period at the dose of 96 mg/kg/day orally; details: route oral
Mus musculus [11] = experiment: In vivo antimalarial activity against Plasmodium yoelii in Swiss mice (Mus musculus) on day 4 at the dose of 96 mg/kg/day intramuscular.
Mus musculus [12] = experiment: In vivo antimalarial activity against Plasmodium yoelii in Swiss mice (Mus musculus) on day 4 at the dose of 96 mg/kg/day orally; details: route oral
Mus musculus [13] = experiment: Number of survival out of 5 mice on day 28 at the dose of 96 mg/kg/day orally; details: route oral
Mus musculus [14] = experiment: Number of survival out of 5 mice on day 28 at the dose of 48 mg/kg/day orally; details: route oral
Mus musculus [15] = experiment: In vivo antimalarial activity against Plasmodium yoelii in Swiss mice (Mus musculus) on day 4 at the dose of 48 mg/kg/day orally; details: route oral
Mus musculus [16] = experiment: Mean survival time calculated for the mice which died during 28 day observation period at the dose of 24 mg/kg/day orally; details: route oral
Mus musculus [17] = experiment: In vivo antimalarial activity against Plasmodium yoelii in Swiss mice (Mus musculus) on day 4 at the dose of 24 mg/kg/day orally; details: route oral
Mus musculus [18] = experiment: Mean survival time calculated for the mice which died during 28 day observation period at the dose of 24 mg/kg/day i.m.; details: route intramuscular

SMILES	Activity (Mus musculus [1])	Activity (Mus musculus [2])	MST (Mus musculus [3])	MST (Mus musculus [4])	Suppression (Mus musculus [5]) [%]	Suppression (Mus musculus [6]) [%]	Activity (Mus musculus [7])	Activity (Mus musculus [8])	MST (Mus musculus [9])	MST (Mus musculus [10])	Suppression (Mus musculus [11]) [%]	Suppression (Mus musculus [12]) [%]	Activity (Mus musculus [13])	Activity (Mus musculus [14])	Suppression (Mus musculus [15]) [%]	MST (Mus musculus [16])	Suppression (Mus musculus [17]) [%]	MST (Mus musculus [18])
C[C@@H]1CC[C@H]2[C@@H](C)C(=O)O[C@@H]3O[C@@]4(C)CC[C@@H]1[C@]32OO4 [ARTEMISININ]	4	5	16	>28	100	100	–	–	–	–	–	–	–	–	–	–	–	–
C=C(CCC(O)c1ccccc1)C1COC2(CCCCC2)OO1 (stereo not drawn)	–	0	–	14.4	–	90.5	0	0	12.6	11.6	94.5	65	–	–	–	–	–	–
C=C(CCC(O)c1ccc(Cl)cc1)C1COC2(CCCC2)OO1 (stereo not drawn)	–	0	–	14.57	–	98.4	–	2	14.57	7.4	100	29.6	0	–	–	–	–	–
C=C(CCC(O)c1cccc2ccccc12)C1COC2(CCCC2)OO1 (stereo not drawn)	–	0	–	14.75	–	93.4	–	1	15.75	10.4	100	81.3	0	–	–	–	–	–
CCN(CC)CCCC(C)Nc1ccnc2cc(Cl)ccc12 (stereo not drawn) [CHLOROQUINE]	–	–	17.6	–	–	–	–	–	–	20	–	100	4	4	100	–	–	–
C=C(CCC(O)c1ccc(Cl)cc1)C1COC2(OO1)C1CC3CC(C1)CC2C3 (stereo not drawn)	–	0	10.2	>28 and 15	–	78.9	–	5	–	>28	100	100	5	0	90.8	–	–	–
C=C(CCC(O)c1ccc(-c2ccccc2)cc1)C1COC2(OO1)C1CC3CC(C1)CC2C3 (stereo not drawn)	–	–	17.57	14.5	–	–	0	3	–	17.33	79	100	3	2	100	8.8	90.4	–
C=C(CCC(O)c1ccccc1)C1COC2(OO1)C1CC3CC(C1)CC2C3 (stereo not drawn)	–	2	9	>28 and 15.57	–	98.1	–	5	–	16.57	100	100	2	0	62.4	–	–	–
C=C(CCC(O)c1ccc(-c2ccccc2)cc1)C1COC2(CCCC2)OO1 (stereo not drawn)	0	0	12	17.33	85.2	100	–	2	16.75	16	100	100	0	0	94.3	–	–	11.8
C=C(CCC(O)c1ccc(-c2ccccc2)cc1)C1COC2(CCCCC2)OO1 (stereo not drawn)	–	0	11.2	14	–	81	–	4	10.6	13.8	96.4	100	0	0	77.5	–	–	–
C=C(CCC(O)c1cccc2ccccc12)C1COC2(CCCCC2)OO1 (stereo not drawn)	–	0	–	16	–	93.4	–	4	14.2	13	100	68.4	0	–	–	–	–	–
C=C(C)C(O)CCC(=C)C1COC2(OO1)C1CC3CC(C1)CC2C3 (stereo not drawn)	0	0	–	19.57	67.7	100	–	2	14.8	–	100	–	–	–	–	–	–	12.2
C=C(CCC(O)c1ccccc1)C1COC2(CCCC2)OO1 (stereo not drawn)	–	0	–	14.8	67.7	100	–	2	12.6	8.2	100	–	0	–	–	–	–	–
C=C(CCC(O)c1cccc2ccccc12)C1COC2(OO1)C1CC3CC(C1)CC2C3 (stereo not drawn)	–	–	15.57	15.33	–	–	0	2	–	17	72.13	100	3	2	100	10.4	87.1	–
C=C(CCC(O)c1ccc(Cl)cc1)C1COC2(CCCCC2)OO1 (stereo not drawn)	–	0	–	>28	–	97.1	–	5	16	10.2	100	88.8	0	–	–	–	–	–
